ChEMBL document CHEMBL1155853, “N-(thiazol-2-yl)-2-thiophene carboxamide derivatives as Abl inhibitors identified by a pharmacophore-based database screening of commercially available compounds” (Bioorg Med Chem Lett, 2008)

What follows are compounds tested against Tyrosine-protein kinase ABL1 (Homo sapiens, UniProt P00519) (assay: Inhibition of Abl kinase by cell free assay).
Tyrosine-protein kinase ABL1, sequence (P00519 whole entry): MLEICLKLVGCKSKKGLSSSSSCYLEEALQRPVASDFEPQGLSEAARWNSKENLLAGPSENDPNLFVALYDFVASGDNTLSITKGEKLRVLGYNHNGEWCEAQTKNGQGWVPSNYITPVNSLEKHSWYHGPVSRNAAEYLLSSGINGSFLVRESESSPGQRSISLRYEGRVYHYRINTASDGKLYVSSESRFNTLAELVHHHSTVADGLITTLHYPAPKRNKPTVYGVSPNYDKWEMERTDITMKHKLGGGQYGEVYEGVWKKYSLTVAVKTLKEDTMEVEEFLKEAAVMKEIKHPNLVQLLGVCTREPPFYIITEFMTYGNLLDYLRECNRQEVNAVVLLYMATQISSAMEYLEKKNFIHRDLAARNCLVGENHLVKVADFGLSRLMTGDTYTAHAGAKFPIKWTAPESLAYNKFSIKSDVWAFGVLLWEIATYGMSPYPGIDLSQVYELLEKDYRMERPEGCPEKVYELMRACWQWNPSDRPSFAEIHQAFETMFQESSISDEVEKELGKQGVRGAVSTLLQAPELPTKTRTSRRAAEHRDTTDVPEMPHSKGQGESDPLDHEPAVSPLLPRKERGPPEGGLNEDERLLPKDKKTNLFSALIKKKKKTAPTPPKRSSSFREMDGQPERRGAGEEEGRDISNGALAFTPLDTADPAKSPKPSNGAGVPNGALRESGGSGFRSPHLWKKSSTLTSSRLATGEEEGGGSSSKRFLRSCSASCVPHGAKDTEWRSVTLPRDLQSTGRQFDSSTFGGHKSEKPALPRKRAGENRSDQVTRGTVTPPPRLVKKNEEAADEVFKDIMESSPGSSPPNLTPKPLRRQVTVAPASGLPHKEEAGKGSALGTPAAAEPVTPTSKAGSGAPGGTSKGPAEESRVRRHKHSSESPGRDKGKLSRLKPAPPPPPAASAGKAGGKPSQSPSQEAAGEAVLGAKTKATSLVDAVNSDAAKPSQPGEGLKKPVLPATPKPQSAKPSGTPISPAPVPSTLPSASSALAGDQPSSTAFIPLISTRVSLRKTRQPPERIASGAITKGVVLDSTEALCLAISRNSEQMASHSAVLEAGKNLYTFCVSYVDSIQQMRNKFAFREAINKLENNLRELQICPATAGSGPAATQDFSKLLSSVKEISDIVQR

O=C(Nc1ncc(Cc2ccccc2F)s1)c1cccs1 and O=C(Nc1ncc(Cc2ccccc2Cl)s1)c1cccs1 are within 1.5-fold of each other in Ki: 170 nM for the first, 245 nM for the second.

First: O=C(Nc1ncc(Cc2ccc(F)cc2)s1)c1cccs1
Second: O=C(Nc1ncc(Cc2ccc(Cl)cc2)s1)c1cccs1
The Ki of the first is 4.8-fold lower: 130 nM for the first, 624 nM for the second. The first binds more tightly here.

First: O=C(Nc1ncc(Cc2ccc(Cl)cc2Cl)s1)c1cccs1
Second: O=C(Nc1ncc(Cc2cc(Cl)ccc2Cl)s1)c1cccs1
The Ki of the first is 69-fold higher: 3470 nM for the first, 50 nM for the second. The second binds more tightly here.

First: COc1ccc(Cc2cnc(NC(=O)c3cccs3)s2)cc1
Second: Cc1ccc(Cc2cnc(NC(=O)c3cccs3)s2)cc1
The Ki of the first is 16-fold lower: 16 nM for the first, 249 nM for the second.

COc1ccc2c(c1)Cc1sc(NC(=O)c3cccs3)nc1-2 and Cc1cccc(Cc2cnc(NC(=O)c3cccs3)s2)c1 are within 1.5-fold of each other in Ki: 68 nM for the first, 59 nM for the second.

O=C(Nc1ncc(Cc2ccccc2)s1)c1cccs1 and O=C(Nc1ncc(Cc2cccc(Cl)c2)s1)c1cccs1 are within 1.5-fold of each other in Ki: 90 nM for the first, 97 nM for the second.

Compared with O=C(Nc1ncc(Cc2cc(C(F)(F)F)ccc2Cl)s1)c1cccs1, O=C(Nc1ncc(Cc2cccc(C(F)(F)F)c2)s1)c1cccs1 is 6.2-fold lower in Ki: 845 nM for the first, 136 nM for the second.

Going from O=C(Nc1ncc(-c2ccc(F)cc2)s1)c1cccs1 to O=C(Nc1ncc(-c2ccc(Cl)cc2)s1)c1cccs1, the Ki falls from 1650 nM to 791 nM (2.1-fold). The second binds more tightly here.

O=C(Nc1nnc(COc2ccccc2)s1)c1cccs1 and O=C(Nc1nnc(Cc2ccccc2)s1)c1cccs1 are within 1.5-fold of each other in Ki: 278 nM for the first, 360 nM for the second.
